Measured values as given in US6228877A, “Substituted pyrroles” (Hoffmann-La Roche Inc., priority 1998, dated 2001).

Test system: epithelial breast carcinoma cell line (MDAMB-435)
Experiment: effect of compounds on growth of epithelial breast carcinoma cell line MDAMB-435 (MTT, 5 days)
Format: cell-based
Conditions: Homo sapiens, MDA-MB-435, 120 h, MDAMB-435 cells, 5 days post drug addition, 0.1% DMSO
Experimental: The epithelial breast carcinoma cell line (MDAMB-435) was purchased from ATCC (American Type Cell Culture Collection) and was grown in culture in medium as recommended by ATCC. For analysis of the effect of various compounds on growth of these cells, the cells were plated at a concentration of 1500 cells/well in a 96 well tissue culture plate ("test plate). The day after the cells were plated, the compounds to be analyzed were dissolved in 100% DMSO (dimethyl sulfoxide) to yield at 10 mM stock solution. Each compound was diluted in H2 O to 1 mM and was added to triplicate wells in the first row of a 96 well master plate which contains medium to yield a final concentration of 40 μM. The compounds were then serially diluted in medium in the "master plate". The diluted compound(s) were then transferred to test plates containing cells. A row of vehicle "control cells" received DMSO. The final concentration of DMSO in each well was 0.1%. 5 days post drug addition, the plate was analyzed as follows:
MTT (3-(4-5 methyl thiazole-2-yl)-2,5-diphenyl tetrazolium bromide; thiazolyl blue) was added to each well to yield a final concentration of 1 mg/ml. The plate was then incubated at 37° C. for 21/2-3 hours. The MTT containing medium was then removed and 50 μl of 100% ethanol was added to each well to dissolve the formazan. The absorbences were then read using an automated plate reader (Bio-tek microplate reader).
IC50 's were calculated using the Reed and Munsch equation, see Am. J. Hygiene Vol. 27 pgs. 493-497, 1938.

SMILES	IC50
CC(=O)Nc1ccc2c(C3=C(c4cn(C)c5cc([N+](=O)[O-])ccc45)C(=O)NC3=O)cn(C)c2c1 [H H CH3 CONH NO2]	20 nM
Cc1ccc2c(C3=C(c4cn(C)c5ccc(C#N)cc45)C(=O)NC3=O)cn(C)c2c1 [H CN H CH3, 3-[4-(1,6-Dimethyl-1H-indol-3-yl]-2,5-dioxo-2,5-dihydro-1H-pyrrol-3-yl]1-methyl-1H-indole-5-carbonitrile]	400 nM
Cn1cc(C2=C(c3cn(C)c4cc([N+](=O)[O-])ccc34)C(=O)NC2=O)c2ccc(N)cc21 [H H NH2 NO2, 3-(6-Amino-1-methyl-1H-indol-3-yl)-4-(1-methyl-6-nitro-1H-indol-3-yl)-pyrrole-2,5-dione]	< 10 nM
Cn1cc(C2=C(c3cn(C)c4cc([N+](=O)[O-])ccc34)C(=O)NC2=O)c2ccc(C#N)cc21 [H H CN NO2, 1-methyl-3-[4-(1-methyl-6-nitro-1H-indol-3-yl)-2,5-dioxo-2,5-dihydro-1H-pyrrol-3-yl]1H-indole-6-carbonitrile]	50 nM
COc1ccc2c(C3=C(c4cn(C)c5cc(NC=O)ccc45)C(=O)NC3=O)cn(C)c2c1 [H H CHONH CH3 O]	10 nM
COc1ccc2c(c1)c(C1=C(c3cn(C)c4cc(Cl)ccc34)C(=O)NC1=O)cn2C [H CH3 O H Cl, 3-(6-Chloro-1-methyl-1H-indol-3-yl)-4-(5-methoxy-1-methyl-1H-indol-3-yl)-pyrrole-2,5-dione]	200 nM
Cn1cc(C2=C(c3cn(C)c4cc([N+](=O)[O-])ccc34)C(=O)NC2=O)c2cc(Cl)ccc21 [H Cl H NO2, 3-(5-Chloro-1-methyl-1H-indol-3-yl)-4-(l-methyl-6-nitro-1H-indol-3-yl)-pyrrole-2,5-dione]	170 nM
CNc1ccc2c(C3=C(c4cn(C)c5cc(OC)ccc45)C(=O)NC3=O)cn(C)c2c1 [H H CH3 NH CH3 O, 3-(6-Methoxy-1-methyl-1H-indol-3-yl)-4-(1-methyl-6-methyl-amino-1H-indol-3-yl)-pyrrole-2,5-dione]	< 10 nM
COc1ccc2c(C3=C(c4cn(C)c5cc(OC)ccc45)C(=O)NC3=O)cn(C)c2c1 [H H OCH3 OCH3, 3,4-Bis-(6-methoxy-1-methyl-1H-indol-3-yl)-pyrrole-2,5-dione]	5 nM
Cn1cc(C2=C(c3cn(C)c4cc(Br)ccc34)C(=O)NC2=O)c2ccc(N)cc21 [H H NH2 Br, 3-(6-Amino-1-methyl-1H-indol-3-yl)-4-(6-bromo-1-methyl-1H-indol-3-yl)-pyrrole-2,5-dione]	4 nM
COc1ccc2c(C3=C(c4cn(C)c5cc(N=[N+]=[N-])ccc45)C(=O)NC3=O)cn(C)c2c1 [H H N3 CH3 O, 3-(6-Azido-1-methyl-1H-indol-3-yl)-4-(6-methoxy-1-methyl-1H-indol-3-yl)-pyrrole-2,5,-dione]	70 nM
COc1ccc2c(C3=C(c4cn(C)c5cc(N)ccc45)C(=O)NC3=O)cn(C)c2c1 [H H NH2 CH3 O, 3-(6-Amino-1-methyl-1H-indol-3-yl)-4-(6-methoxy-1-methyl-1H-indol-3-yl)-pyrrole-2,5-dione]	15 nM
Cn1cc(C2=C(c3cn(C)c4cc([N+](=O)[O-])ccc34)C(=O)NC2=O)c2ccc([N+](=O)[O-])cc21 [H H NO2 NO2, 3,4-Bis-(1-methyl-6-nitro-1H-indol-3-yl)-pyrrole-2,5-dione]	70 nM
COc1ccc2c(c1)c(C1=C(c3cn(C)c4cc(OC)ccc34)C(=O)NC1=O)cn2C [H CH3 O H CH3 O]	70 nM
COC(=O)c1ccc2c(C3=C(c4cn(C)c5cc([N+](=O)[O-])ccc45)C(=O)NC3=O)cn(C)c2c1 [H H CO2 CH3 NO2, 1-methyl-3[4-(1-methyl-6-nitro-1H-indol-3-yl)-2,5-dioxo-2,5-dihydro-1H-pyrrole-3-yl]-1H-indole-6-carboxylic acid methyl ester]	7 nM
Cc1ccc2c(C3=C(c4cn(C)c5cc([N+](=O)[O-])ccc45)C(=O)NC3=O)cn(C)c2c1 [H H CH3 NO2, 3-(1,6-dimethyl-1H-indol-3-yl)-4-(1-methyl-6-nitro-1H-indol-3-yl)-pyrrole-2,5-dione]	70 nM
COC(=O)c1ccc2c(C3=C(c4cn(C)c5cc(N)ccc45)C(=O)NC3=O)cn(C)c2c1 [H H NH2 CO2 CH3, 3-[4-(6-Amino-1-methyl-1H-indol-3-yl)-2,5-dioxo-2,5-dihydro-1H-pyrrol-3-yl] -1-methyl-1H-indole-6-carboxylic acid methyl ester]	50 nM

Other lines, results leading:

IC50	SMILES
12 nM	Cn1cc(C2=C(c3cn(C)c4cc(Cl)ccc34)C(=O)NC2=O)c2ccc(N)cc21 [H H NH2 Cl, 3-(6-Amino-1-methyl-1H-indol-3-yl)-4-(6-chloro-1-methyl-1H-indol-3-yl)-pyrrole-2,5-dione]
400 nM	Cc1ccc2c(c1)c(C1=C(c3cn(C)c4cc(C)ccc34)C(=O)NC1=O)cn2C [H CH3 H CH3, 3-(1,6-Dimethyl-1H-indol-3-yl)-4-(1,5-dimethyl-1H-indol-3-yl)-pyrrole-2,5-dione]
130 nM	Cc1ccc2c(c1)c(C1=C(c3cn(C)c4cc([N+](=O)[O-])ccc34)C(=O)NC1=O)cn2C [H CH3 H NO2, 3-(1,5-Dimethyl-1H-indol-3-yl)-4-(1-methyl-6-nitro-1H-indol-3-yl)-pyrrole-2,5-dione]
12 nM	CCOc1ccc2c(C3=C(c4cn(C)c5cc(N)ccc45)C(=O)NC3=O)cn(C)c2c1 [H H NH2 EtO]
7 nM	COc1ccc2c(C3=C(c4cn(C)c5cc(Cl)ccc45)C(=O)NC3=O)cn(C)c2c1 [H H Cl OCH3, 3-(6-chloro-1-methyl-1H-indol-3-yl)-4-(6-methoxy-1-methyl-1H-indol-3-yl)-pyrrole-2,5-dione]
70 nM	CCOc1ccc2c(C3=C(c4cn(C)c5ccc(OC)cc45)C(=O)NC3=O)cn(C)c2c1 [H CH3 O H EtO, 3-(6-Ethoxy-1-methyl-1H-indol-3-yl)-4-(5-methoxy-1-methyl-1H-indol-3-yl)-pyrrole-2,5-dione]
70 nM	COc1ccc2c(C3=C(c4cn(C)c5cccc(OC)c45)C(=O)NC3=O)cn(C)c2c1 [CH3 O H H CH3 O, 3-(6-Methoxy-1-methyl-1H-indol-3-yl)-4-(4-methoxy-1-methyl-1H-indol-3-yl)-pyrrole-2,5-dione]
70 nM	Cn1cc(C2=C(c3cn(C)c4cc([N+](=O)[O-])ccc34)C(=O)NC2=O)c2ccc(Cl)cc21 [H H NO2 Cl, 3-(6-chloro-1-methyl-1H-indol-3-yl)-4-(1-methyl-6-nitro-1H-indol-3-yl)-pyrrole-2,5-dione]
90 nM	Cn1cc(C2=C(c3cn(C)c4cc([N+](=O)[O-])ccc34)C(=O)NC2=O)c2ccc(OCc3ccccc3)cc21 [H H NO2 Obenzyl, 3-(6-benzyloxy-1-methyl-1H-indol-3-yl)-4-(1-methyl-6-nitro-1H-indol-3-yl)-pyrrole-2,5-dione]
42 nM	Cn1cc(C2=C(c3cn(C)c4cc(F)ccc34)C(=O)NC2=O)c2ccc(N)cc21 [H H NH2 F, 3-(6-Amino-1-methyl-1H-indol-3-yl)-4-(6-fluoro-1-methyl-1H-indol-3-yl)-pyrrole-2,5-dione]
70 nM	COc1ccc2c(c1)c(C1=C(c3cn(C)c4cc(C#N)ccc34)C(=O)NC1=O)cn2C [H CH3 O H CN, 3-[4-(5-methoxy-1-methyl-1H-indol-3-yl)-2,5-dioxo-2,5-dihydro-1H-pyrrol-3-yl]-1-methyl-1H-indole-6-carbonitrile]
32 nM	CCOc1ccc2c(C3=C(c4cn(C)c5cccc(F)c45)C(=O)NC3=O)cn(C)c2c1 [F H H EtO, 3-(4-Fluoro-1-methyl-1H-indol-3-yl)-4-(6-ethoxy-1-methyl-1H-indol-3-yl)-pyrrole-2,5-dione]
40 nM	CCOCCOCCOc1ccc2c(C3=C(c4cn(C)c5cc([N+](=O)[O-])ccc45)C(=O)NC3=O)cn(C)c2c1 [H H Et(OCH2 CH2)2 O NO2, 3-{6-[2-(2-Ethoxy-ethoxy)-ethoxy]-1-methyl-1H-indol-3-yl}-4-(1-methyl-6-nitro-1H-indol-3-yl)-pyrrole-2,5-dione]
70 nM	Cn1cc(C2=C(c3cn(C)c4cc([N+](=O)[O-])ccc34)C(=O)NC2=O)c2ccc(Br)cc21 [H H Br NO2, 3-(6-Bromo-1-methyl-1H-indol-3-yl)-4-(1-methyl-6-nitro-1H-indol-3-yl)-pyrrole-2,5-dione]
9 nM	CSc1ccc2c(C3=C(c4cn(C)c5cc([N+](=O)[O-])ccc45)C(=O)NC3=O)cn(C)c2c1 [H H NO2 SCH3, 3-(1-Methyl-6-methylsulfanyl-1H-indol-3-yl)-4-(1-methyl-6-nitro-1H-indol-3-yl)-pyrrole-2,5-dione]
50 nM	Cn1cc(C2=C(c3cn(C)c4cccc(F)c34)C(=O)NC2=O)c2ccc([N+](=O)[O-])cc21 [F H H NO2, 3-(4-Fluoro-1-methyl-1H-indol-3-yl)-4-(1-methyl-6-nitro-1H-indol-3-yl)-pyrrole-2,5-dione]
10 nM	Cc1ccc2c(C3=C(c4cn(C)c5cc(C#N)ccc45)C(=O)NC3=O)cn(C)c2c1 [H H CH3 CN, 3-[4-(1,6-dimethyl-1H-indol-3-yl)-2,5-dioxo-2,5-dihydro-1H-pyrrole-3-yl]-1-methyl-1H-indole-6-carbonitrile]
